Assays:
Format in all cases: cell-based
HCV replicon = assay: Replicon assay (Table 2, genotype not stated); settings: Hepatitis C virus, Table 2, first measurement, luciferase activity after 48 hours
Procedure: Compounds were assayed for activity against HCV using the genotype 1a and 1b subgenomic replicon model systems. Stable cell lines bearing the genotype 1a and 1b replicons were used for screening of compounds. Both replicons are bicistonic and contain the firefly luciferase gene. The ET cell line is stably transfected with RNA transcripts harboring a I389luc-ubi-neo/NS3-3′/ET replicon with firefly luciferase-ubiquitin-neomycin phosphotransferase fusion protein and EMCV-IRES driven NS3-5B polyprotein containing the cell culture adaptive mutations (E1202G; T12801; K1846T) (Krieger at al, 2001 and unpublished). The genotype 1a replicon is a stable cell line licensed from Apath LLC, modified to contain the firefly luciferase gene. The cells were grown in DMEM, supplemented with 10% fetal calf serum, 2 mM Glutamine, Penicillin (100 IU/mL)/Streptomycin (100 μg/mL), 1× nonessential amino acids, and 250-500 μg/mL G418 (“Geneticin”). They were all available through Life Technologies (Bethesda, Md.). The cells were plated at 0.5×10^4 cells/well in 384 well plates containing compounds. The final concentration of compounds ranged between 0.03 μM to 50 μm and the final DMSO concentration of 0.5-1%.
Luciferase activity was measured 48 hours later by adding a Steady glo (Promega, Madison, Wis.). Percent inhibition of replication data was plotted relative to no compound control. Under the same condition, cytotoxicity of the compounds was determined using cell titer glo (Promega, Madison, Wis). IC50s were determined from a 10 point dose response curve using 3-4-fold serial dilution for each compound, which spans a concentration range >1000 fold. BioAssay determines the level of inhibition for each compound by normalizing cross-talk corrected plate values against the negative […] controls to determine Percent Inhibition:
These normalized values are exported to EC50 where they are plotted against the molar compound concentrations using the standard four parameter logistic equation: […]
Some EC50 measurements were repeated a second time and for both 1A and 1B genotypes after those reported in Table 2 for compounds 101-108 and the repeated data was reported in Table 3.

HCV Genotype 1A Replicon = assay: Replicon assay, genotype 1a subgenomic replicon, luciferase readout; settings: Hepatitis C virus, 48 h, Table 3; luciferase activity after 48 hours
Outline: (§1)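 EC50 values came from four-parameter logistic fits of 10-point dose responses (3–4-fold steps, final 0.03–50 μM, 0.5–1% DMSO), normalized against no-compound and no-cell controls. Firefly luciferase was read 48 h after plating 0.5×10^4 replicon cells/well, 1b ET or 1a Apath-derived line.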

HCV Genotype 1B Replicon = assay: Replicon assay, genotype 1b subgenomic replicon (ET cell line), luciferase readout; settings: Hepatitis C virus, 48 h, Table 3; luciferase activity after 48 hours
Outline: as §1

| Structure (SMILES) | EC50 (HCV replicon) [nM] | EC50 (HCV Genotype 1A Replicon) [nM] | EC50 (HCV Genotype 1B Replicon) [nM] |
| --- | --- | --- | --- |
| O=C(c1nc2c(C(F)(F)F)cc(-c3ccoc3)cn2c1Cl)N1CCC(N2CCCC2=O)CC1 [Compound 101, 1-[1-(3-Chloro-6-furan-3-yl-8-trifluoromethyl-imidazo[1,2-a]pyridine-2-carbonyl)-piperidin-4-yl]-pyrrolidin-2-one] | 57 |  |  |
| O=C(c1nc2c(C(F)(F)F)cc(-c3cn[nH]c3)cn2c1Cl)N1CCC(N2CCCC2=O)CC1 [Compound 102, 1-{1-[3-Chloro-6-(1H-pyrazol-4-yl)-8-trifluoromethyl-imidazo[1,2-a]pyridine-2-carbonyl]-piperidin-4-yl}-pyrrolidin-2-one] | 683 |  |  |
| O=C(c1nc2c(C(F)(F)F)cc(-c3ccoc3)cn2c1Cl)N1CCC(N2CCOC2=O)CC1 [Compound 103, 3-[1-(3-Chloro-6-furan-3-yl-8-trifluoromethyl-imidazo[1,2-a]pyridine-2-carbonyl)-piperidin-4-yl]-oxazolidin-2-one] | 26 | 10 | 20 |
| O=C(c1nc2c(C(F)(F)F)cc(-c3ccccc3)cn2c1Cl)N1CCC(N2CCOC2=O)CC1 [Compound 104, 3-[1-(3-Chloro-6-phenyl-8-trifluoromethyl-imidazo[1,2-a]pyridine-2-carbonyl)-piperidin-4-yl]-oxazolidin-2-one] | 283 |  |  |
| O=C(c1nc2c(C(F)(F)F)cc(Br)cn2c1Cl)N1CCC(N2CCOC2=O)CC1 [Compound 105, 3-[1-(6-Bromo-3-chloro-8-trifluoromethyl-imidazo[1,2-a]pyridine-2-carbonyl)-piperidin-4-yl]-oxazolidin-2-one] | 71 | 30 | 40 |
| C=C(C)c1cc(C(F)(F)F)c2nc(C(=O)N3CCC(N4CCOC4=O)CC3)c(Cl)n2c1 [Compound 106, 3-[1-(3-Chloro-6-isopropenyl-8-trifluoromethyl-imidazo[1,2-a]pyridine-2-carbonyl)-piperidin-4-yl]-oxazolidin-2-one] | 5 | 10 | 20 |
| O=C(c1nc2c(C(F)(F)F)cc(C3=CCCC3)cn2c1Cl)N1CCC(N2CCOC2=O)CC1 [Compound 107, 3-[1-(3-Chloro-6-cyclopent-1-enyl-8-trifluoromethyl-imidazo[1,2-a]pyridine-2-carbonyl)-piperidin-4-yl]-oxazolidin-2-one] | 16 |  |  |
| O=C(c1nc2c(C(F)(F)F)cc(-c3cn[nH]c3)cn2c1Cl)N1CCC(N2CCOC2=O)CC1 [Compound 108, 3-{1-[3-Chloro-6-(1H-pyrazol-4-yl)-8-trifluoromethyl-imidazo [1,2-a]pyridine-2-carbonyl]-piperidin-4-yl}-oxazolidin-2-one] | 213 | 20 | 130 |
| C[C@H]1OC(=O)N(C2CCN(C(=O)c3nc4c(C(F)(F)F)cc(C5CC5)cn4c3Cl)CC2)C1=O [Compound 192, (5R)-3-(1-{[3-chloro-6-cyclopropyl-8-(trifluoromethyl)imidazo[1,2-a]pyridin-2-yl]carbonyl}-4-piperidinyl)-5-methyl-1,3-oxazolidine-2,4-dione] |  | 280 | 20 |
| C[C@H]1OC(=O)N(C2CCN(C(=O)c3nc4c(C(F)(F)F)cc(Br)cn4c3Cl)CC2)C1=O [Compound 193, (5R)-3-(1-{[6-bromo-3-chloro-8-(trifluoromethyl)imidazo[1,2-a]pyridin-2-yl]carbonyl}-4-piperidinyl)-5-methyl-1,3-oxazolidine-2,4-dione] |  | 770 | 90 |
| O=C(c1nc2c(C(F)(F)F)cc(I)cn2c1Br)N1CCC(N2CCOC2=O)CC1 [Compound 194, 3-(1-{[3-bromo-6-iodo-8-(trifluoromethyl)imidazo[1,2-a]pyridin-2-yl]carbonyl}-4-piperidinyl)-1,3-oxazolidin-2-one] |  | 30 | 30 |
| O=C(c1nc2c(C(F)(F)F)cc(I)cn2c1Br)N1CCC(N2C(=O)COC2=O)CC1 [Compound 195, 3-(1-{[3-bromo-6-iodo-8-(trifluoromethyl)imidazo[1,2-a]pyridin-2-yl]carbonyl}-4-piperidinyl)-1,3-oxazolidine-2,4-dione] |  | 50 | 30 |
| CC(C)c1cc(C(F)(F)F)c2nc(C(=O)N3CCC(N4CCOC4=O)CC3)cn2c1 [Compound 196, 3-(1-{[6-(1-methylethyl)-8-(trifluoromethyl)imidazo[1,2-a]pyridin-2-yl]carbonyl}-4-piperidinyl)-1,3-oxazolidin-2-one] |  | 1190 | 960 |
| O=C(c1nc2c(C(F)(F)F)cc(C3CC3)cn2c1Br)N1CCC(N2CCOC2=O)CC1 [Compound 197, 3-(1-{[3-bromo-6-cyclopropyl-8-(trifluoromethyl)imidazo[1,2-a]pyridin-2-yl]carbonyl}-4-piperidinyl)-1,3-oxazolidin-2-one] |  | 10 | 10 |
| CC(=O)Nc1cc(C(F)(F)F)c2nc(C(=O)N3CCC(N4CCOC4=O)CC3)c(Cl)n2c1 [Compound 198, N-[3-chloro-2-{[4-(2-oxo-1,3-oxazolidin-3-yl)-1-piperidinyl]carbonyl}-8-(trifluoromethyl)imidazo[1,2-a]pyridin-6-yl]acetamide] |  | ≥ 5010 | ≥ 5010 |
| O=C(c1nc2c(C(F)(F)F)cc(-c3ccoc3)cn2c1Cl)N1CCC(n2cn[nH]c2=O)CC1 [Compound 199, 4-(1-{[3-chloro-6-(3-furanyl)-8-(trifluoromethyl)imidazo[1,2-a]pyridin-2-yl]carbonyl}-4-piperidinyl)-2,4-dihydro-3H-1,2,4-triazol-3-one] |  | 4790 | 5370 |
| O=C(c1nc2c(C(F)(F)F)cc(C3CC3)cn2c1Cl)N1CCC(N2C(=O)CCC2=O)CC1 [Compound 200, 1-(1-{[3-chloro-6-cyclopropyl-8-(trifluoromethyl)imidazo[1,2-a]pyridin-2-yl]carbonyl}-4-piperidinyl)-2,5-pyrrolidinedione] |  | 170 | 30 |
| O=C(c1nc2c(C(F)(F)F)cc(C3CC3)cn2c1Cl)N1CCC(N2CCCC2=O)CC1 [Compound 201, 1-(1-{[3-chloro-6-cyclopropyl-8-(trifluoromethyl)imidazo[1,2-a]pyridin-2-yl]carbonyl}-4-piperidinyl)-2-pyrrolidinone] |  | 100 | 30 |
| O=C(c1nc2c(C(F)(F)F)cc(C3CC3)cn2c1Cl)N1CCC(N2C(=O)COC2=O)CC1 [Compound 202, 3-(1-{[3-chloro-6-cyclopropyl-8-(trifluoromethyl)imidazo[1,2-a]pyridin-2-yl]carbonyl}-4-piperidinyl)-1,3-oxazolidine-2,4-dione] |  | 20 | 10 |
| O=C(c1cn2cc(-c3ccoc3)cc(C(F)(F)F)c2n1)N1CCC(N2CCOC2=O)CC1 [Compound 203, 3-(1-{[6-(3-furanyl)-8-(trifluoromethyl)imidazo[1,2-a]pyridin-2-yl]carbonyl}-4-piperidinyl)-1,3-oxazolidin-2-one] |  | 320 | 2340 |
| CC1(C)CN(C(=O)c2nc3c(C(F)(F)F)cc(-c4ccoc4)cn3c2Cl)CCC1N1CCOC1=O (stereo not shown) [Compound 204, 3-(1-{[3-chloro-6-(3-furanyl)-8-(trifluoromethyl)imidazo[1,2-a]pyridin-2-yl]carbonyl}-3,3-dimethyl-4-piperidinyl)-1,3-oxazolidin-2-one] |  | 40 | 300 |
| CC1(C)CC(N2CCOC2=O)CCN1C(=O)c1nc2c(C(F)(F)F)cc(-c3ccoc3)cn2c1Cl (stereo not shown) [Compound 211, 3-(1-{[3-chloro-6-(3-furanyl)-8-(trifluoromethyl)imidazo[1,2-a]pyridin-2-yl]carbonyl}-2,2-dimethyl-4-piperidinyl)-1,3-oxazolidin-2-one] |  | 580 | 340 |
| N#Cc1cc(C(F)(F)F)c2nc(C(=O)N3CCC(N4CCOC4=O)CC3)c(Cl)n2c1 [Compound 239, 3-chloro-2-{[4-(2-oxo-1,3-oxazolidin-3-yl)-1-piperidinyl]carbonyl}-8-(trifluoromethyl)imidazo[1,2-a]pyridine-6-carbonitrile] |  | 800 | 7940 |

Source: patent US20100272680A1, “Piperidinyl Cyclic Amido Antiviral Agents” (priority 2009, published 2010)
